# Measured values: patent US4022912A, “Use of 1-decarboxy-1-hydroxymethyl-PGE1 in therapeutic bronchodilation” (priority 1976, dated 1977)
# Like-named read-outs stand apart in the source and are kept apart here.
# Tests used:
# [1] = test system: Guinea Pig Tracheal Tissue; experiment: Relaxation of guinea pig tracheal tissue in vitro; assay type: cell-based; conditions: Table B, standard error in parentheses
# Procedure: Male guinea pigs weighing 200-500 g were killed by a blow on the head. A 20 mm length of trachea was dissected from each of the animals, transferred to a petri dish containing Krebs' solution aerated with 95% O2 and 5% CO2 at 37° C., and cut longitudinally opposite the tracheal muscle. The tissue was then cut transversely three quarters of the distance across; a second cut in the opposite direction again three quarters of the distance across the tissue was made, and the procedure was continued for the whole tissue. The ends of the trachea were pulled to form a zig-zag shaped strip. The tracheal strips used in the experiment were approximately 30 mm when extended under 0.25-0.5 g load in a tissue bath. Cotton thread was tied to one end of the tissues, and linen thread to the other. The tissues were attached via the linen thread to a glass hook in a 5 ml isolated tissue bath containing Krebs' solution at 37° C. aerated with a mixture of 95% O2 and 5% CO2. The opposite ends were attached via cotton thread to an isotonic transducer. The load on the transducer lever was small, usually 0.3 g, with a range of 0.25-0.5 g; and the magnification high, 80-fold using an appropriate twin-channel pen recorder. A minimum of thirty minutes was allowed before applying a drug to the tissues. Drugs were then applied (in volumes of 0.5 ml) at thirty minute intervals, being in contact with the tissue for five minutes followed by an overflow washout time of twenty seconds.
# [2] = test system: Histamine-Induced Bronchoconstriction; experiment: Inhibition of histamine-induced bronchoconstriction in the anesthetized guinea pig in vivo by intravenous administration; conditions: Cavia porcellus, iv, i.v. 15 seconds prior to histamine
# Procedure: (§1) Male albino guinea pigs (400-600 g; Dunkin-Hartley Strain) were anesthetized with pentobarbitone sodium (60 mg/kg intraperitoneally).
# (§2) Trachea, external jugular vein and carotid artery were cannulated for recording ventilation, intravenous administration of drugs, and blood pressure respectively. The animals were artificially respired throughout the experiment. Electrocardiograms were also recorded. Respiratory flow was charted on a twin-channel recorder fixed to an SE differential pressure transducer.
# (§3) Histamine was administered intravenously at 5 minute intervals. The test drug was administered intravenously 15 seconds prior to histamine in order to inhibit bronchoconstriction.
# [3] = test system: Histamine-Induced Bronchoconstriction; experiment: Inhibition of intravenous histamine-induced bronchoconstriction in the anesthetized guinea pig by inhalational administration; assay type: in vivo; conditions: 0.001 μg/ml in stock solution aerosolized; inhalation
# Procedure: as §1, §2, §3
# Details of the procedure of this example are the same as those in preceding Example 2 with the exception that the test compounds were delivered in aerosol form into the trachea of the test aminals.
# [4] = test system: Convulsions Induced by Inhaled Histamine; experiment: Delay of convulsions induced by inhaled histamine in conscious guinea pigs; assay type: in vivo, guinea pig
# Procedure: Conscious male albino guinea pigs (Dunkin-Hartley strain) weighing 200-300 g were placed (singly) in a 5-liter transparent chamber for 1 minute and subjected to an aerosol of vehicle or test drug in solution, plus histamine (1% w/v).
# The time from the beginning of the administration of the aerosol to the start of the first convulsion (when the guinea pig is immediately removed from the aerosol) is the pre-convulsion time. Twenty-four hours later the general procedure was repeated. Guinea pigs treated with the test drug on the first day were treated with vehicle on the second day and vice versa in a cross-over design. Maximum time allowed in the aerosol was 10 minutes. An ultrasonic humidifier was used to produce the aerosol.
# tracheal smooth muscle [5] = conditions: isolated from a guinea pig; cited from earlier work
# tracheal smooth muscle [6] = conditions: isolated from a human; cited from earlier work
# bronchial smooth muscle = conditions: by inhalation or intravenously; cited from earlier work
# bronchodilation = conditions: inhalational administration to guinea pigs; cited from earlier work
smiles,measurement,setting,value
"CCCCC[C@H](O)/C=C/[C@H]1[C@H](O)CC(=O)[C@@H]1CCCCCCC(=O)O [PGE1, 11α,15α-dihydroxy-9-oxo-13-trans-prostenoic acid]",Relaxation (×80) (± S.E.),[1]; 0.001 μg/ml,0 mm
same,Relaxation (×80) (± S.E.),[1]; 0.010 μg/ml,24 (1) mm
same,Relaxation (×80) (± S.E.),[1]; 0.100 μg/ml,46 (19) mm
same,Relaxation (×80) (± S.E.),[1]; 1.000 μg/ml,75 (17) mm
same,Relaxation (×80) (± S.E.),[1]; 10.000 μg/ml,75 (65) mm
same,ED50,"[2]; Experiment No. 1, read-out: Dose I.V. inhibiting bronchoconstriction by 50% (ID50)",0.603 µg/kg
same,ED50,"[2]; Experiment No. 2, read-out: Dose I.V. inhibiting bronchoconstriction by 50% (ID50)",0.966 µg/kg
same,ED50,"[2]; Experiment No. 3, read-out: Dose I.V. inhibiting bronchoconstriction by 50% (ID50)",0.263 µg/kg
same,ED50,"[2]; Experiment No. 4, read-out: Dose I.V. inhibiting bronchoconstriction by 50% (ID50)",0.864 µg/kg
same,ED50,"[2]; Experiment No. 5, read-out: Dose I.V. inhibiting bronchoconstriction by 50% (ID50)",0.202 µg/kg
same,ED50,"[2]; mean of experiments 1-5, read-out: Dose I.V. inhibiting bronchoconstriction by 50% (ID50), Mean",0.579 µg/kg
same,Precent Inhibition of Histamine-Induced Bronchoconstriction,[3],6%
same,Prolongation of Preconvulsion Time,"[4]; Expt. 1B, 0.50 μg/ml stock solution aerosolized, P <0.1",77 s
same,Prolongation of Preconvulsion Time,"[4]; Expt. 1B, 2.50 μg/ml stock solution aerosolized, P <0.001",225 s
same,Prolongation of Preconvulsion Time,"[4]; Expt. 1B, 5.00 μg/ml stock solution aerosolized, N.S. at P ≤ 0.05",139 s
same,Prolongation of Preconvulsion Time,"[4]; Expt. 1B, 10.00 μg/ml stock solution aerosolized, N.S. at P ≤ 0.05",267 s
same,Prolongation of Preconvulsion Time,"[4]; Expt. 2B, 0.10 μg/ml stock solution aerosolized, N.S. at P ≤ 0.05",495 s
same,Prolongation of Preconvulsion Time,"[4]; Expt. 2B, 0.50 μg/ml stock solution aerosolized, P <0.01",274 s
same,Prolongation of Preconvulsion Time,"[4]; Expt. 2B, 1.00 μg/ml stock solution aerosolized, P <0.01",294 s
same,Prolongation of Preconvulsion Time,"[4]; Expt. 2B, 5.00 μg/ml stock solution aerosolized, N.S. at P ≤ 0.05",664 s
same,relaxation of isolated tracheal smooth muscle,tracheal smooth muscle [5],relaxes tracheal smooth muscle
same,relaxation of isolated tracheal smooth muscle,tracheal smooth muscle [6],relaxes tracheal smooth muscle
same,relaxation of bronchial smooth muscle in vivo,bronchial smooth muscle,relaxes bronchial smooth muscle in vivo
same,bronchodilation compared with isoprenaline,bronchodilation,superior to that induced by isoprenaline
